{"source": "patent US20060058383A1", "about": "(priority 2004, published 2006)", "key": {"HL-60 cells [1]": {"test_system": "HL-60 cells", "assay": "Induction of apoptosis, annexin-V/PI flow cytometry", "assay_type": "cell-based, human", "conditions": "30 μM; 24 h", "protocol": "HL-60 cells were incubated with the indicated concentrations of S-Glycolycin or 3-BrPA for 24 h. Apoptosis was measured by double staining with annexin-V and PI, followed by flow cytometry analysis. […] Incubation of HL-60 cells with 30 μM of S-Glycolycin caused more 90% cells to undergo apoptosis in 24 h, whereas the same concentration of 3-BrPA killed less than 20% of the cells within the same time period."}, "[2]": {"test_system": "respiration-deficient subclone HL-60/C6F cells", "assay": "Depletion of cellular ATP pool (PCA extraction, HPLC)", "assay_type": "cell-based, human", "conditions": "12 h incubation", "protocol": "(§1) Cells were incubated with the indicated concentrations of S-Glycolycin or 3-BrPA for 12 h. Cellular ATP was extracted by 0.4 N PCA, neutralized with KOH, and quantified by HPLC analysis. […] Incubation of cells with 0.03 mM S-Glycolycin completely depleted cellular ATP in both cell lines, while it required a 10-fold greater concentration (0.3 mM) of 3-BrPA to achieve the same degree of ATP depletion."}, "[3]": {"test_system": "human colon cancer (HCT116) cells", "assay": "Sensitivity under hypoxic versus normoxic conditions, annexin-V/PI assay", "assay_type": "cell-based", "description": "(§2) Cancer cells in solid tumors have to adapt to the hypoxia environment due to insufficient blood supply. Under hypoxia conditions, cancer cells use the glycolytic pathway to generate ATP without consuming oxygen. This metabolic adaptation also renders cancer cells relatively resistant to anticancer agents and radiation therapy, partially due to up-regulation of expression of cell survival factors such as HIF-1α. […] However, because under hypoxia condition cancer cells dependent on glycolysis for generation of ATP, it is contemplated that such cancer cells are vulnerable to glycolytic inhibition by Glycolycin. […] Thus, it is envisioned that Glycolycin can be use for effective treatment of many solid tumors, either as a single agent or in combination with other anticancer agents."}, "HL-60/AR cells [4]": {"test_system": "HL-60/AR cells", "assay": "MTT cytotoxicity, drug-resistant clone versus parental cells", "assay_type": "cell-based, human", "conditions": "MTT assay", "protocol": "HL-60 cell line and its drug-resistant clone HL-60/AR were incubated with the indicated concentrations of doxorubicin, vincristine, and 3-BrPA for 72 h. Cytotoxicity was measured by MTT assay. […] Based on the teachings provided herein, studies may be performed to determine the sensitivity of HL-60/AR cells to Glycolycin.\nAra-C, a drug commonly used in the frontline treatment of leukemia, was used in parallel experiments. Cytotoxicity was measured by MTT assay."}, "HL-60 cells [5]": {"test_system": "HL-60 cells", "assay": "MTT assay, in vitro cytotoxic activity before and after storage of drug solutions", "assay_type": "cell-based, human", "conditions": "pH 7.0, 72 h drug incubation"}, "[6]": {"test_system": "human leukemia HL-60 cell line", "assay": "Depletion of cellular ATP pool (PCA extraction, HPLC)", "assay_type": "cell-based", "conditions": "12 h incubation; HL-60", "protocol": "as §1"}, "[7]": {"assay": "Stability of neutral drug solution on storage"}, "HL-60/AR cells [8]": {"test_system": "HL-60/AR cells", "assay": "Combination cytotoxicity in multi drug resistant cells, annexin-V/PI assay 24 h", "assay_type": "cell-based, human", "conditions": "multi drug resistant HL-60/AR cells"}, "[9]": {"test_system": "respiration-deficient clones HL-c6/ρ^0-C6F and Raji-C6", "assay": "Cytotoxicity in respiration-deficient clones, annexin-V/PI and colony formation", "assay_type": "cell-based, human", "protocol": "Initial studies have been performed to test the sensitivity of respiration-competent leukemia cells (parental HL-60) and lymphoma cells (parental Raji) in comparison with their respiration-deficient clones HL-c6/ρ^0-C6F and Raji-C6. The mitochondria-defect cell lines were established by the present inventors and others (Pelicano et al., 2003). Cells were incubated with the indicated concentrations of 3-BrPA, and cytotoxicity was measured by two different assays: annexin-V/PI staining and colony formation assay."}, "[10]": {"test_system": "human lymphoma cells (Raji)", "assay": "Apoptosis, annexin-V/PI flow cytometry", "assay_type": "cell-based", "description": "Because the mTOR pathway plays an important role in promoting cellular nutrient metabolism and cell growth, and function to enhance cell survival downstream of the P13K/Akt pathway, the present inventors postulated that a simultaneous inhibition of mTOR and glycolysis, which serve as a major metabolic pathway for ATP generation in cancer cells, would severely impact cellular energy metabolism and have a potent cytotoxic effect against malignant cells. To test this possibility, rapamycin was used as an agent to inhibit mTOR, and glycolycin (3-bromo-2-oxopropionate, abbreviated herein as 3-BrOP) to inhibit glycolysis.\n(§3) Cell growth inhibition was determined by direct counting of the cells after they were treated with rapamycin, 3-BrOP, or their combination. A Coulter Z2 Particle Count & Size Analyzer was used to determine cell counts at 24 h, 48 h, and 72 h after drug incubation. Apoptosis was measured by flow cytometric analysis of cells stained with annexin V-FITC and propidium iodide (PI). Cells were treated with the indicated compounds under various incubation conditions as described in the figure legends. The samples were collected, washed with cold PBS, and then suspended in annexin-V binding buffer. The cells were stained with annexin V-FITC for 15 min at room temperature, washed, and then stained with PI. The samples were analyzed using a FACSCalibur flow cytometer equipped with CELLQuestPro software (Becton-Dickinson, San Jose, Calif.)."}, "[11]": {"test_system": "HL-60 cells with high Bcl-2 expression", "assay": "MTT growth inhibition of Bcl-2 transfected cells", "assay_type": "cell-based, human", "conditions": "MTT assay", "protocol": "Cell growth inhibition was measured by MTT assay.\nIncreased expression of the anti-apoptotic molecule Bcl-2 has been associated with drug resistance in cancer cells. The over-expression of Bcl-2 in HL-60 cells was […] against the cytotoxic effect of S-Glycolycin. […] Thus, Glycolycin may be used to overcome drug resistance due to Bcl-2 over expression."}, "[12]": {"test_system": "human lymphoma cells (Raji)", "assay": "Sensitivity under hypoxic versus normoxic conditions, annexin-V/PI assay 24 h", "assay_type": "cell-based", "conditions": "0.3 μM", "protocol": "(Annexin-V/PI assay, 24 h)\nas §2"}, "Raji cells [13]": {"test_system": "Raji cells", "assay": "Cellular glucose uptake, [3H]-2-deoxyglucose", "assay_type": "cell-based, human", "conditions": "100 ng/ml for 20 h", "protocol": "After the samples were washed three times with cold PBS, the radioactivity in the cell pellets was quantified by liquid scintillation counting. […] Intracellular nucleotides were extracted from the cells with 0.4 N of perchloric acid (PCA) for 10 min in ice-bath, neutralization with concentrated KOH to pH 7.0, and analyzed by HPLC analysis as described previously (Xu et al., 2005; Seymour et al., 1996). The intracellular ATP contents were calculated using the ATP standard curve generated under identical HPLC conditions, and normalized by equal cell number. The relative cellular ATP levels were expressed as percent of the control cells."}, "Raji cells [14]": {"test_system": "Raji cells", "assay": "Cell growth by direct cell counting (Coulter Z2)", "assay_type": "cell-based, human", "conditions": "100 ng/ml alone; up to 72 h", "protocol": "A different assay was then used to further confirm the synergy between rapamycin and 3-BrOP. Raji cells were treated with 30 μM 3-BrOP, 100 ng/ml rapamycin, or their combination, and the numbers of cells were directly counted for consecutive 3 days, using a Coulter Z2 Particle Count & Size Analyzer.\nas §3"}}}
{"smiles": "O=C(O)C(=O)CBr", "note": "[3-BrPA, 3-bromo-2-oxopropionic acid, reference compound]", "values": [{"measurement": "cells undergoing apoptosis", "setting": "HL-60 cells [1]", "result": "less than 20%"}, {"measurement": "concentration that completely depleted cellular ATP", "setting": "[2]", "result": 0.3, "unit": "mM"}, {"measurement": "sensitivity under hypoxic versus normoxic conditions", "setting": "[3]", "result": "significantly more sensitive"}, {"measurement": "sensitivity of HL-60/AR compared to parental HL-60 cells", "setting": "HL-60/AR cells [4]", "result": "equally sensitive"}, {"measurement": "% Cell Survival", "setting": "HL-60 cells [5]; 5 μM, fresh drug solution", "result": "99.8 ± 1.9", "unit": "%"}, {"measurement": "% Cell Survival", "setting": "HL-60 cells [5]; 10 μM, drug stored for 3 weeks at 4° C.", "result": "70.0 ± 9.8", "unit": "%"}, {"measurement": "% Cell Survival", "setting": "HL-60 cells [5]; 10 μM, fresh drug solution", "result": "59.2 ± 4.1", "unit": "%"}, {"measurement": "% Cell Survival", "setting": "HL-60 cells [5]; 30 μM, drug stored for 3 weeks at 4° C.", "result": "87.0 ± 23", "unit": "%"}, {"measurement": "% Cell Survival", "setting": "HL-60 cells [5]; 30 μM, fresh drug solution", "result": "3.0 ± 1.4", "unit": "%"}, {"measurement": "% Cell Survival", "setting": "HL-60 cells [5]; 100 μM, drug stored for 3 weeks at 4° C.", "result": "2.3 ± 0.3", "unit": "%"}, {"measurement": "% Cell Survival", "setting": "HL-60 cells [5]; 100 μM, fresh drug solution", "result": "2.5 ± 0.8", "unit": "%"}, {"measurement": "concentration that completely depleted cellular ATP", "setting": "[6]", "result": 0.3, "unit": "mM"}, {"measurement": "activity of solution after storage", "setting": "[7]; kept at 4° C. for 3 weeks", "result": "substantial loss of activity"}, {"measurement": "stability of solution at neutral pH", "setting": "[7]; pH 7.0, kept at 4° C.", "result": "discoloration"}, {"measurement": "effect of combination with ara-C or doxorubicin on cytotoxic activity", "setting": "HL-60/AR cells [8]", "result": "significantly enhance the cytotoxic activity"}, {"measurement": "sensitivity of mitochondria-defect cells compared to parental cells", "setting": "[9]", "result": "more sensitive"}]}
{"smiles": "Nc1ccn([C@@H]2O[C@H](CO)[C@@H](O)[C@@H]2O)c(=O)n1", "note": "[ara-C]", "values": [{"measurement": "apoptosis, % of the cells", "setting": "[10]; concentration range of 0.5-1 μM, 30 h", "result": "20-35%"}, {"measurement": "sensitivity of HL-60/AR compared to parental HL-60 cells", "setting": "HL-60/AR cells [4]", "result": "moderately resistant"}, {"measurement": "sensitivity of Bcl-2 transfected cells compared to transfected control (Neo)", "setting": "[11]", "result": "reduced sensitivity"}]}
{"smiles": "COc1cccc2c1C(=O)c1c(O)c3c(c(O)c1C2=O)C[C@@](O)(C(=O)CO)C[C@@H]3O[C@H]1C[C@H](N)[C@H](O)[C@H](C)O1", "note": "[doxorubicin]", "values": [{"measurement": "sensitivity under hypoxic versus normoxic conditions", "setting": "[3]", "result": "reduced"}, {"measurement": "sensitivity of HL-60/AR compared to parental HL-60 cells", "setting": "HL-60/AR cells [4]", "result": "highly resistant"}, {"measurement": "sensitivity under hypoxic versus normoxic conditions", "setting": "[12]", "result": "slightly reduced"}, {"measurement": "sensitivity of Bcl-2 transfected cells compared to transfected control (Neo)", "setting": "[11]", "result": "reduced sensitivity"}]}
{"smiles": "CO[C@H]1C[C@@H]2CC[C@@H](C)[C@@](O)(O2)C(=O)C(=O)N2CCCC[C@H]2C(=O)O[C@H]([C@H](C)C[C@@H]2CC[C@@H](O)[C@H](OC)C2)CC(=O)[C@H](C)/C=C(\\C)[C@@H](O)[C@@H](OC)C(=O)[C@H](C)C[C@H](C)/C=C/C=C/C=C/1C", "note": "[rapamycin, reference compound]", "values": [{"measurement": "decrease in glucose uptake", "setting": "Raji cells [13]", "result": 6, "unit": "%"}, {"measurement": "apoptosis", "setting": "[10]; 100 ng/ml alone", "result": 4.8, "unit": "%"}, {"measurement": "decrease in cell numbers", "setting": "Raji cells [14]", "result": "~35", "unit": "%"}]}
{"smiles": "CC[C@]1(O)C[C@H]2CN(CCc3c([nH]c4ccccc34)[C@@](C(=O)OC)(c3cc4c(cc3OC)N(C=O)[C@H]3[C@@](O)(C(=O)OC)[C@H](OC(C)=O)[C@]5(CC)C=CCN6CC[C@]43[C@@H]65)C2)C1", "note": "[vincristine]", "values": [{"measurement": "sensitivity of HL-60/AR compared to parental HL-60 cells", "setting": "HL-60/AR cells [4]", "result": "highly resistant"}]}
